Patent publication US12594267B2, “Capsid inhibitors for the treatment of HIV” (Gilead Sciences, Inc., priority 2018, dated 2026)
Where two headings read alike, the source gives them in different places.

How the values were obtained:
[1] = Plasma PK after single oral administration in solution, rat; type: in vivo, Sprague-Dawley Rat
Procedure: (§1) An oral formulation containing a compound of Formula (Ia) in […], 20% propylene glycol, 45 PEG 300, and 30% 0.01 N HCl was prepared. The formulation was orally administered to male rat, dog, cynomolgus monkey, and rhesus monkey according to the doses shown in Table 8 below.

[2] = Plasma PK after single oral administration in solution, cynomolgus monkey; type: in vivo
Procedure: as §1

[3] = Plasma PK after single oral administration in solution, rhesus monkey; type: in vivo
Procedure: as §1

[4] = Plasma PK after single oral administration in solution, summary over the four species; type: in vivo; settings: male, Sprague-Dawley (rat), beagle (dog), range of species means (rat, dog, cynomolgus monkey, rhesus monkey)
Procedure: as §1

HIV-1 clinical isolates = assay: Antiviral activity against HIV-1 clinical isolates in PHA-stimulated human PBMCs; type: cell-based
Procedure: (§2) The antiretroviral activity of the compound of Formula (Ia) was tested against a panel of 22 HIV-1 clinical isolates of HIV-1 and two HIV-2 isolates in freshly isolated, PHA-stimulated human peripheral blood mononuclear cells (PBMCs). The HIV-1 isolates included representative strains from subtypes A, B, C, D, E, F, G, N, O, AE, and AG. Following a 7-day infection, virus production was determined by measuring reverse transcriptase activity in cell-free culture supernatants.

HIV-2 isolates = assay: Antiviral activity against HIV-2 isolates in PHA-stimulated human PBMCs; type: cell-based; settings: Human immunodeficiency virus 2, PBMC, 168 h, 7-day infection, RT activity readout, mean of triplicate
Procedure: as §2

WT LAI = assay: microbe, parasite or virus in culture; type: cell-based, HIV-1; settings: Human immunodeficiency virus 1, MT2, read-out: WT LAI EC50
Procedure: The antiviral activity of the compound of Formula (a) was tested against a panel of known HIV-1 mutants resistant to HIV PIs (ATV and DRV), NRTIs (TFV and FTC), NNRTIs (RPV and EFV) or INSTIs (RAL, EVG and DTG) using a cytopathic antiviral assay in MT-2 cells.

PI-resistant viruses = assay: Cytopathic antiviral assay in MT-2 cells, PI-resistant viruses; type: cell-based, HIV-1; settings: for EC50 Fold-Change: Mutant/WT (HXB2D) EC50 ratio, mean ± s.d. of three experiments
Procedure: (§3) The antiviral activity of the compound of Formula (a) was tested against a panel of known HIV-1 mutants resistant to HIV PIs (ATV and DRV), NRTIs (TFV and FTC), NNRTIs (RPV and EFV) or INSTIs (RAL, EVG and DTG) using a cytopathic antiviral assay in MT-2 cells. The compound of Formula (Ia) was fully active against all tested mutants resistant to PIs (Table 11), NRTIs (Table 12), NNRTIs (Table 13) or INSTIs (Table 14).

INSTI-resistant viruses = assay: Cytopathic antiviral assay in MT-2 cells, INSTI-resistant viruses; type: cell-based, HIV-1; settings: for EC50 Fold-Change: Mutant/WT (HXB2D) EC50 ratio, mean ± s.d. of three experiments
Procedure: as §3

[5] = male, Sprague-Dawley, plasma, rat, single oral 5.0 mg/kg, solution in 5% ethanol/20% propylene glycol/45% PEG 300/30% 0.01 N HCl, mean ± SD, n=3
[6] = male, plasma, single oral 4.0 mg/kg, solution in 5% ethanol/20% propylene glycol/45% PEG 300/30% 0.01 N HCl, mean ± SD, n=3

CC(C)(C#Cc1ccc(-c2ccc(Cl)c3c(NS(C)(=O)=O)nn(CC(F)(F)F)c23)c([C@H](Cc2cc(F)cc(F)c2)NC(=O)Cn2nc(C(F)(F)F)c3c2C(F)(F)[C@@H]2C[C@H]32)n1)S(C)(=O)=O [Formula (Ia), N—((S)-1-(3-(4-chloro-3-(methylsulfonamido)-1-(2,2,2-trifluoroethyl)-1H-indazol-7-yl)-6-(3-methyl-3-(methylsulfonyl)but-1-yn-1-yl)pyridin-2-yl)-2-(3,5-difluorophenyl)ethyl)-2-((3bS,4aR)-5,5-difluoro-3-(trifluoromethyl)-3b,4,4a,5-tetrahydro-1H-cyclopropa[3,4]cyclopenta[1,2-c]pyrazol-1-yl)acetamide] gave a bioavailability ([1]; male, Sprague-Dawley, plasma, rat, single oral 5.0 mg/kg, same solution, calculated based on AUC0-72h, mean ± SD, n=3, read-out: F (oral bioavailability)) of 21.7 ± 8.9%, an AUC(0-inf) [1, 5] of 25200 ± 10200 µM·h and a Cmax [1, 5] of 336 ± 116 µM. The Tmax [1, 5] was 10 ± 3.5 h, the AUC(0-t) ([1]; male, Sprague-Dawley, plasma, rat, single oral 5.0 mg/kg, solution in 5% ethanol/20% propylene glycol/45% PEG 300/30% 0.01 N HCl, mean ± SD, n=3, read-out: AUC0-72h) was 13500 ± 3930 µM·h and the “F % (bioavailability), in words” value ([1]; rats, oral solution) was “moderate”. For the same compound, the bioavailability ([2]; male, plasma, single oral 4.0 mg/kg, same solution, calculated based on AUC0-24h, mean ± SD, n=3, read-out: F (oral bioavailability)) was 2.2 ± 0.6%, the Cmax [2, 6] was 17.7 ± 5.6 µM and the Tmax [2, 6] was 8.7 ± 3.1 h. The AUC(0-t) ([2]; male, plasma, single oral 4.0 mg/kg, solution in 5% ethanol/20% propylene glycol/45% PEG 300/30% 0.01 N HCl, mean ± SD, n=3, read-out: AUC0-24h) was 298 ± 85 µM·h, the “F % (bioavailability), in words” value ([2]; oral solution) was “low” and the bioavailability ([3]; male, plasma, single oral 4.0 mg/kg, same solution, calculated based on AUC0-72h, mean ± SD, n=3, read-out: F (oral bioavailability)) was 4.4 ± 1.7%. For the same compound, the AUC(0-inf) [3, 6] was 1130 ± 446 µM·h, the Cmax [3, 6] was 29.4 ± 7.5 µM and the Tmax [3, 6] was 18.7 ± 9.2 h. The AUC(0-t) ([3]; male, plasma, single oral 4.0 mg/kg, solution in 5% ethanol/20% propylene glycol/45% PEG 300/30% 0.01 N HCl, mean ± SD, n=3, read-out: AUC0-72h) was 972 ± 367 µM·h, the “F % (bioavailability), in words” value ([3]; oral solution) was “low” and the Tmax [4] was 8.7 to 18.7 h. For the same compound, the EC50 (HIV-1 clinical isolates; Human immunodeficiency virus 1, BAL, PBMC, 168 h, read-out: EC50 in human PBMCs, HIV-1 subtype B isolate Ba-L, 7-day infection, RT activity readout, mean of triplicate) was 0.04 nM, the EC50 (HIV-1 clinical isolates; Human immunodeficiency virus 1, PBMC, 168 h, read-out: EC50 in human PBMCs, HIV-1 CRF01_AE isolate 90TH_CM235, 7-day infection, RT activity readout, mean of triplicate) was 0.04 nM and the EC50 (HIV-1 clinical isolates; Human immunodeficiency virus 1, PBMC, 168 h, read-out: EC50 in human PBMCs, HIV-1 CRF02_AG isolate 01CM0008BBY, 7-day infection, RT activity readout, mean of triplicate) was 0.05 nM. The EC50 (HIV-1 clinical isolates; Human immunodeficiency virus 1, PBMC, 168 h, read-out: EC50 in human PBMCs, HIV-1 CRF02_AG isolate 91DJ263, 7-day infection, RT activity readout, mean of triplicate) was 0.04 nM, the EC50 (HIV-1 clinical isolates; Human immunodeficiency virus 1, PBMC, 168 h, read-out: EC50 in human PBMCs, HIV-1 Group N isolate YBF30, 7-day infection, RT activity readout, mean of triplicate) was 0.02 nM and the EC50 (HIV-1 clinical isolates; Human immunodeficiency virus 1, PBMC, 168 h, read-out: EC50 in human PBMCs, HIV-1 Group O isolate BCF01, 7-day infection, RT activity readout, mean of triplicate) was 0.04 nM. The EC50 (HIV-1 clinical isolates; Human immunodeficiency virus 1, PBMC, 168 h, read-out: EC50 in human PBMCs, HIV-1 subtype A isolate 92UG031, 7-day infection, RT activity readout, mean of triplicate) was 0.04 nM, the EC50 (HIV-1 clinical isolates; Human immunodeficiency virus 1, PBMC, 168 h, read-out: EC50 in human PBMCs, HIV-1 subtype A isolate 92UG037, 7-day infection, RT activity readout, mean of triplicate) was 0.07 nM and the EC50 (HIV-1 clinical isolates; Human immunodeficiency virus 1, PBMC, 168 h, read-out: EC50 in human PBMCs, HIV-1 subtype B isolate 89BZ_167, 7-day infection, RT activity readout, mean of triplicate) was 0.08 nM. For the same compound, the EC50 (HIV-1 clinical isolates; Human immunodeficiency virus 1, PBMC, 168 h, read-out: EC50 in human PBMCs, HIV-1 subtype B isolate 90US_873, 7-day infection, RT activity readout, mean of triplicate) was 0.04 nM, the EC50 (HIV-1 clinical isolates; Human immunodeficiency virus 1, PBMC, 168 h, read-out: EC50 in human PBMCs, HIV-1 subtype B isolate 91US001, 7-day infection, RT activity readout, mean of triplicate) was 0.03 nM and the EC50 (HIV-1 clinical isolates; Human immunodeficiency virus 1, PBMC, 168 h, read-out: EC50 in human PBMCs, HIV-1 subtype B isolate 91US004, 7-day infection, RT activity readout, mean of triplicate) was 0.04 nM. It also gave an EC50 (HIV-1 clinical isolates; Human immunodeficiency virus 1, PBMC, 168 h, read-out: EC50 in human PBMCs, HIV-1 subtype B isolate 96TH_NP1538, 7-day infection, RT activity readout, mean of triplicate) of 0.05 nM, an EC50 (HIV-1 clinical isolates; Human immunodeficiency virus 1, PBMC, 168 h, read-out: EC50 in human PBMCs, HIV-1 subtype B isolate JR-CSF, 7-day infection, RT activity readout, mean of triplicate) of 0.04 nM and an EC50 (HIV-1 clinical isolates; Human immunodeficiency virus 1, PBMC, 168 h, read-out: EC50 in human PBMCs, HIV-1 subtype C isolate 92BR025, 7-day infection, RT activity readout, mean of triplicate) of 0.05 nM. For the same compound, the EC50 (HIV-1 clinical isolates; Human immunodeficiency virus 1, PBMC, 168 h, read-out: EC50 in human PBMCs, HIV-1 subtype C isolate 98US_MSC5016, 7-day infection, RT activity readout, mean of triplicate) was 0.1 nM, the EC50 (HIV-1 clinical isolates; Human immunodeficiency virus 1, PBMC, 168 h, read-out: EC50 in human PBMCs, HIV-1 subtype D isolate 92UG001, 7-day infection, RT activity readout, mean of triplicate) was 0.02 nM and the EC50 (HIV-1 clinical isolates; Human immunodeficiency virus 1, PBMC, 168 h, read-out: EC50 in human PBMCs, HIV-1 subtype D isolate 98UG_57128, 7-day infection, RT activity readout, mean of triplicate) was 0.03 nM. It also gave an EC50 (HIV-1 clinical isolates; Human immunodeficiency virus 1, PBMC, 168 h, read-out: EC50 in human PBMCs, HIV-1 subtype E isolate CMU02, 7-day infection, RT activity readout, mean of triplicate) of 0.05 nM, an EC50 (HIV-1 clinical isolates; Human immunodeficiency virus 1, PBMC, 168 h, read-out: EC50 in human PBMCs, HIV-1 subtype E isolate CMU08, 7-day infection, RT activity readout, mean of triplicate) of 0.05 nM and an EC50 (HIV-1 clinical isolates; Human immunodeficiency virus 1, PBMC, 168 h, read-out: EC50 in human PBMCs, HIV-1 subtype F isolate 93BR020, 7-day infection, RT activity readout, mean of triplicate) of 0.05 nM. For the same compound, the EC50 (HIV-1 clinical isolates; Human immunodeficiency virus 1, PBMC, 168 h, read-out: EC50 in human PBMCs, HIV-1 subtype G isolate JV1083, 7-day infection, RT activity readout, mean of triplicate) was 0.16 nM, the EC50 (HIV-1 clinical isolates; Human immunodeficiency virus 1, PBMC, read-out: HIV-1 EC50 Mean ± s.d., mean over the 22 HIV-1 clinical isolates, human PBMCs) was 0.05 ± 0.03 nM and the EC50 (HIV-1 clinical isolates; Human immunodeficiency virus 1, PBMC, read-out: HIV-1 EC50 Median, median over the 22 HIV-1 clinical isolates, human PBMCs) was 0.04 nM. The EC50 (HIV-1 clinical isolates; Human immunodeficiency virus 1, PBMC, read-out: HIV-1 EC50 Range, range over the 22 HIV-1 clinical isolates, human PBMCs) was 0.02 to 0.16 nM, the EC50 (HIV-2 isolates; HIV-2 isolate CBL-20) was 0.57 nM and the EC50 (HIV-2 isolates; HIV-2 isolate CDC310319) was 1.02 nM. The EC50 (WT LAI) was 0.14 ± 0.03 nM, the “EC50 Fold-Change” value (PI-resistant viruses; G48V/V82A/L90M) was 0.4 ± 0.2 and the “EC50 Fold-Change” value (PI-resistant viruses; G48V/V82S) was 0.4 ± 0.1. The “EC50 Fold-Change” value (PI-resistant viruses; I50V) was 0.6 ± 0.2, the “EC50 Fold-Change” value (PI-resistant viruses; I84V/L90M) was 0.3 ± 0.1 and the “activity against all tested mutants, in words” value (PI-resistant viruses; mutants resistant to PIs) was “fully active”. The “EC50 Fold-Change” value (INSTI-resistant viruses; E92Q/N155H) was 0.9 ± 0.4, the “EC50 Fold-Change” value (INSTI-resistant viruses; E138K/Q148K) was 0.7 ± 0.3 and the “EC50 Fold-Change” value (INSTI-resistant viruses; G140S/Q148R) was 0.8 ± 0.3. For the same compound, the “EC50 Fold-Change” value (INSTI-resistant viruses; N155H/Q148R) was 1.3 ± 0.7, the “EC50 Fold-Change” value (INSTI-resistant viruses; R263K/M50I) was 0.9 ± 0.5 and the “EC50 Fold-Change” value (INSTI-resistant viruses; Y143R) was 0.5 ± 0.1. The “activity against all tested mutants, in words” value (INSTI-resistant viruses; mutants resistant to INSTIs) was “fully active”.
